Source: US20220057383A1, “USE OF BIOMARKERS TO EVALUATE THE EFFICACY OF A COMPOSITION IN REDUCING THE EFFECTS OF CANCER THERAPEUTICS ON SKIN” (Johnson & Johnson Consumer Inc., priority 2019, published 2022)
Read-outs that look alike come from different tables or passages of the source.

Legend:
[1] = tested on: Reconstructed Human Epidermis (RHE) tissues
[2] = tested on: RHE keratinocytes; experiment: Transcriptomic analysis (gene expression profiling) of RHE keratinocytes treated with afatinib; format: cell-based, human; conditions: 100 nM afatinib; for number of genes down-regulated compared to control / number of genes up-regulated compared to control: cut off 50%
[3] = human, in vivo; cited from earlier work
[4] = 100 nM afatinib vs control, cut off 1.2-fold, overall

Afatinib
FOXO3 phosphorylation ([1]; 100 nM afatinib): decreased
cellular senescence pathway, enrichment based on change of protein phosphorylation status ([1]; 100 nM afatinib): significant enrichment
number of phosphoproteins with changed phosphorylation status ([1]; 100 nM afatinib vs control, cut off 1.2-fold change (more than 20%), all time points): 62
number of proteins with a significant decrease of phosphorylation status [1, 4]: 18
number of proteins with a significant increase of phosphorylation status [1, 4]: 44
number of proteins showing decreased phosphorylation compared to control ([1]; 100 nM afatinib, 20 min): 3
number of proteins showing increased phosphorylation compared to control ([1]; 100 nM afatinib, 20 min): 6
PI3K-AKT pathway, Set Enrichment Analysis of phosphorylation status ([1]; 100 nM afatinib, 24 h): significant enrichment
number of proteins showing decreased phosphorylation compared to control ([1]; 100 nM afatinib, 24 h): 23
number of proteins showing increased phosphorylation compared to control ([1]; 100 nM afatinib, 24 h): 18
phosphorylation of MEK1 (Phospho-Ser217) ([1]; 100 nM afatinib, 24 h): not impacted
phosphorylation of MEK1 (Phospho-Ser221) ([1]; 100 nM afatinib, 24 h): not impacted
phosphorylation of Raf1 (Phospho-Ser338) ([1]; 100 nM afatinib, 24 h): decreased
phosphorylation of Raf1 (Phospho-Tyr341) ([1]; 100 nM afatinib, 24 h): not impacted
phosphorylation of eIF4E (Phospho-Ser209) ([1]; 100 nM afatinib, 24 h): decreased
number of proteins showing decreased phosphorylation compared to control ([1]; 100 nM afatinib, 72 h): 6
number of proteins showing increased phosphorylation compared to control ([1]; 100 nM afatinib, 72 h): 6
expression of genes related to inflammation (Th1 response) [2]: did not show any increase
genes involved in innate immunity (S100 family, SPRR2B, DEFB1) [2]: negatively regulated
number of genes down-regulated compared to control ([2]; 6 h): 170
number of genes up-regulated compared to control ([2]; 6 h): 201
expression of KRT2, KRT9, KRT13, KRT15 and Late Cornified Envelop genes (LCE2A, LCE1B, LCE2B, LCE1C, LCE2D) ([2]; 24 h): increase
expression of metallothionein panel (MT1E, MT1L, MT1H L1, MT1X, MT1B, MT1A) ([2]; 24 h): decreased
number of genes down-regulated compared to control ([2]; 24 h): 335
number of genes up-regulated compared to control ([2]; 24 h): 281
expression of CYP (CYP4B1, CYP3A7, CYP3A5, CYP2J2, CYP4A11, CYP1A1, CYP4F22) ([2]; 24 h and 72 h): decreased
expression of CYP (Inc-CYP24A1-1, CYP27A1, CYP4F12) ([2]; 24 h and 72 h): increased
expression of SIRT4 ([2]; 72 h): increased
expression of antioxidant enzymes PRDX2 and PRDX3 ([2]; 72 h): decreased
expression of metallothionein panel (MT1E, MT1L, MT1H L1, MT1X, MT1B, MT1A) ([2]; 72 h): increased
genes related to IL4 and IL13 signaling (Th2 response) ([2]; cluster C2): over representation
genes related to the PI3K/AKT pathway ([2]; cluster C6): upregulation
number of dysregulated genes ([2]; cut-off 50% fold-change, different time points): 2,182
inflammasome response via TLR, NLR and IL1 families ([2]; protein phosphorylation assay and gene expression array): decreased
appearance of granulomas versus other EGFRi [3]: more frequent appearance of granulomas
